We go through seven compounds from US8630703B2, “Treatment utilizing hydrophobic weak bases chemotherapeutic agents and illumination” (Technion Research & Development Foundation Limited, priority 2011, dated 2014).

The test system of series [1] is A549/K1.5 cells. Kind of series: Live cell fluorescent imaging (lysosomal localization and photodestruction). Type of series: cell-based, Human. Conditions: for effect on lysosomal accumulation of C-1330: pre-incubation 10 mM ammonium chloride 30 min or 1 μM bafilomycin A1 60 min. How it is done:
(§1) Lysosomes and mitochondria were stained by incubating the cells 100 nM LysoTracker® Red or 100 nM MitoTracker® Red, respectively, for 1 hour. For subcellular localization of C-1330, cells were also stained with 10 μM C-1330 for 30 minutes.
(§2) Nuclear staining was performed prior to fluorescence imaging by replacing the growth medium with medium containing 2 μg/ml Hoechst 33342, followed by incubation for 10 minutes. Prior to nuclear staining, A549/K1.5 cells were incubated for 1 hour with 10 μM fumitremorgin C (FTC) to prevent efflux of Hoechst 33342 by ABCG2.
(§3) Live cell fluorescent imaging was performed using an Axiovert 200 inverted fluorescence microscope (Carl Zeiss) equipped with a digital camera. […] Light intensity was maintained at 12.5% of the maximum. The magnification used was ×630.
(§4) Cells were pre-incubated with 10 mM ammonium chloride for 30 minutes or with 1 μM bafilomycin A1 for 60 minutes, prior to being incubated with 10 μM C-1330 for 30 minutes as described hereinabove. Ammonium chloride and bafilomycin A1 remained present during the incubation with C-1330.
A549/K1.5 cells were incubated with 10 μM doxorubicin for 30 minutes, and then observed and illuminated (at 470 nm) by live cell fluorescent imaging as described in the Materials and Methods section. Upon illumination, the cells were photographed every second, in order to observe changes in the cells over time.

For series [2], the system named is A549/K1.5 cells. Kind of series: XTT cytotoxicity assay with and without illumination. The format is cell-based, Human. Conditions: A549/K1.5.
Procedure: Human non-small cell lung cancer A549 cells and their ABCG2-overexpressing MDR (multi-drug resistant) A549/K1.5 sub-line; ovarian carcinoma cell line 2008 and its stable MRP1-transfectant 2008/MRP1; and human non-small lung cancer cell line SW1573 and its ABCB1-overexpressing subline SW1573/2R160) were maintained in RPMI-1640 medium supplemented with 10% fetal bovine serum, 2 mM glutamine, 100 μg/ml penicillin and streptomycin (Biological Industries, Beth-Haemek, Israel) in a humid atmosphere containing 5% CO2 at 37° C.
(§5) Parental cells and their MDR (multi-drug resistant) sub-lines were seeded in 96-well plates (2×10^4 cells/well in 90 μl growth medium/well). […] Following incubation for 2 hours, the drug-containing medium was replaced by drug-free medium. The cells were then placed on an illuminator plate (Model 460, thin line series, S&S X-Ray Products Inc., Brooklyn, N.Y.) for 1 hour, thereby achieving a light dose of 5 J/cm^2 white light. After illumination, plates were further incubated for an additional 24 hours.
Cell viability was determined using an XTT (2,3-bis-(2-methoxy-4-nitro-5-sulfophenyl)-2H-tetrazolium-5-carboxanilide) Cell Proliferation Kit (Biological Industries). The drug concentrations required to inhibit cell growth by 50% (i.e., IC50 values) were determined from the cell survival curves in the absence and in the presence of illumination. Results are presented as mean values of at least three independent experiments.
The nature of series [3]: Absorption, emission and excitation spectra. Type of series: physicochemical. Conditions: aqueous 0.9% NaCl. As for the experimental part:
Stock solutions containing sunitinib or the imidazoacridinones (IAs) C-1375 and C-1379 in 100% dimethyl sulfoxide were diluted with aqueous 0.9% NaCl solution under continuous stirring. Absorption spectra were recorded with a two-beam Cary 500 UV-VIS-NIR spectrophotometer (Varian) in 1 cm long Suprasil® quartz cuvettes (Hellma), at an average scan speed of 600 nm/minute, at 20° C. The steady state emission and excitation spectra were recorded with an LS 50B luminescence spectrometer (Perkin-Elmer).

The subject of series [4] is chicken chorioallantoic membrane (CAM) vasculature. The series is described as follows: Chorioallantoic membrane (CAM) model of photodynamic therapy. Type of series: in vivo. Conditions: for vascular effect in illuminated area: 420 nm. How it is done:
Fertilized chicken eggs (Animalco AG) were labeled and transferred into a hatching incubator with a relative air humidity of 65% and a temperature of 37° C. The incubator was equipped with an automatic fan (Savimat). On embryonic development day (EDD) 3, a hole of approximately 3 mm in diameter was opened in the eggshell above the air pouch of the egg and covered with Parafilm® wrapping film (Pechiney) to prevent dehydration and possible infections. The eggs were then returned to the incubator in a static position until use. On EDD 11, the hole in the shell was extended to a diameter of approximately 3 cm in order to provide better access to the chorioallantoic membrane (CAM) during experiments.
Eggs were placed under an Eclipse 600 FN epi-fluorescence microscope equipped with a Plan Apo 4/0.2, working distance 20 objective (Nikon). Microscopic observation and illumination of a region of the CAM was performed as described previously [Lim et al., Photochem Photobiol 2010, 86:397-402; Lim et al., J Med Chem 2010, 53:2865-2874; Nowak-Sliwinska et al., Angiogenesis 2010, 13:281-292]. Illumination was provided by a 100 W high pressure Hg-arc lamp. Light doses were adjusted with neutral density filters and measured with a calibrated Field-Master GS power meter (Coherent Inc.). Fluorescence images were acquired with an F-view II 12-bit monochrome Peltier-cooled digital CCD camera driven with analySIS DOCU software (Soft Imaging System GmbH).
For excitation and detection of imidazoacridinones (IAs) or sunitinib, the microscope was equipped with a filter set (Nikon) characterized by excitation wavelengths of 420±20 nm and emission wavelengths of >470 nm,
After the treatment the eggs were numbered, covered and returned to the incubator. Each treatment group included 5 eggs.
Chorioallantoic membranes (CAMs) were intravenously injecting chorioallantoic membranes with 20 μl of a solution of FITC-dextran (20 kDa, 25 mg/ml). Fluorescence angiography was then performed using light from an Hg-arc lamp and light filters (Nikon) which provided excitation wavelengths of 470±20 nm and emission wavelengths of >520 nm for observing the fluorescence. In order to increase the quality of the recorded angiographs, a light absorber, in the form of India ink, was injected (30 μl) into the extra-embryonic cavity. The purpose of this second injection was to decrease the influence of the CAM auto-fluorescence background, which changes rapidly with time due to the embryo's movement. The India ink was filtered shortly before injection, using a sterile cellulose acetate membrane with 0.2 μm pores (Renner GmbH).
Photodynamic therapy (PDT) was performed at embryo development day (EDD) 11, at which stage the CAM is fully developed and contains a vessel network with a regular capillary plexus. The imidazoacridinones were intravenously injected into the main vessel of the CAM through a 33-gauge needle fitted to a 100 μl syringe (Hamilton), at a concentration of 1 mg/ml and a volume of 100 μl, which corresponds to a dose of 100 μg, or approximately 10 mg/kg embryo body weight.
One minute after injection, a region of the CAM which contained vessels of diameters in a range of 5 to 70 μm was illuminated (420±20 nm) at a light dose of 20 J/cm^2 and an irradiance of […]. […]
The illuminated area was 0.02 cm^2, as delimited by an optical diaphragm. The fluorescence of sunitinib was visible in the vasculature of the CAMs prior to PDT.

In series [5] the test system is Human A2780 ovarian carcinoma tumors. The series is described as follows: PDT of tumors transplanted onto CAM. Conditions: 12 μg per embryo i.v., 420 nm 34 J/cm^2, two rounds; vs C-1379 without illumination. Type of series: in vivo. As for the experimental part: Human A2780 ovarian carcinoma cells were used to establish tumor xenografts in the CAM. Tumor spheroids were grown by a hanging drop technique, resulting in spheroids with a predefined size. A2780 cells were suspended in medium containing 20% Methocel™ (Sigma-Aldrich, St. Louis, USA), and 50 μl drops (1×10^6 cells/drop) were dispensed on the internal part of the lid of a Petri dish. After 24 hours, spheroids were harvested and placed on the CAM at embryonic development day (EDD) 7. Two transplanted human A2780 ovarian carcinoma tumor spheroids, containing 10^6 cells, were grown on a single CAM, and 300 μM C-1379 was injected intravenously at a concentration of 12 μg per embryo at EDD 11.
Prior to further treatment, both tumors were imaged by imidazoacridinone (C-1379) fluorescence angiography, as described hereinabove. One minute after C-1379 administration, one of the tumors was illuminated at a wavelength of 420 nm (34 J/cm^2, 70 mW/cm^2). 24 hours later, both tumors were visualized by FITC-dextran angiography, as described hereinabove, and by standard photography. Immediately thereafter, a second round of C-1379 intravenous administration and PDT (on one of the tumors) was performed as previously. The CAM was then incubated for two more days. […]

The test system of series [6] is A549 cells. Kind of series: XTT cytotoxicity assay with and without illumination.
Procedure: as §5
Cell viability was determined using an XTT (2,3-bis-(2-methoxy-4-nitro-5-sulfophenyl)-2H-tetrazolium-5-carboxanilide) Cell Proliferation Kit (Biological Industries). […] Results are presented as mean values of at least three independent experiments.
Series [7] has as its system A549 cells. The series is described as follows: Live cell fluorescent imaging (lysosomal localization and photodestruction). The format is cell-based, Human. The note with it: pre-incubation 10 mM ammonium chloride 30 min or 1 μM bafilomycin A1 60 min. As for the experimental part: as §1, §2, §3, §4
Monolayers of A549 cells were grown in glass-bottom plates and were washed in growth medium. The medium was then replaced with a special isotonic balanced salt solution lacking or containing either N,N′-dimethylthiourea (DMTU), a potent hydroxyl radical and hydrogen peroxide scavenger, L-histidine, a hydroxyl radical and singlet oxygen radical (^1O2) scavenger, or sodium azide, a singlet oxygen radical scavenger. The salt solution consisted of 10 mM HEPES pH 7.4, 120 mM NaCl, 5 mM KCl, 1 mM CaCl2, 1 mM MgCl2, and 25 mM glucose. After incubation for 1 hour, C-1330 was added to the aforementioned solution buffer for an additional 30 minutes, during which the scavengers remained present, in order to load lysosomes. The cells were then examined by fluorescent imaging as described hereinabove.

Series [8] concerns A549 cells. The series is described as follows: Lysosome quantification by LysoTracker Red fluorescence. Conditions: for increase in lysosomal fluorescence compared to untreated cells: 20 μM. The format is cell-based, Human. As for the experimental part: A549 cells were seeded in 96-well plates at a concentration of 500 cells/well for the 48 hour chloroquine treatment, or at a concentration of 1000 cells/well for the 24 hour chloroquine treatment, in a total volume of 100 μl of medium per well. Following an overnight incubation, chloroquine was then added at the indicated concentrations for 24 or 48 hours. Lysosomes were then stained with LysoTracker® Red, detected by fluorescent imaging as described hereinabove, and quantified using EZQuant software.

Take `CCN(CC)CCNc1ccc2ncn3c4ccc(O)cc4c(=O)c1c23` [C-1311]: the “lysosomal photodestruction on co-treatment with ABCG2 inhibitor” value in the series with A549/K1.5 cells [1] (MDR cells, 20 μM C-1311 + 10 μM fumitremorgin C, 2 hours, illumination) is reported as “intense lysosomal photodestruction”.

For the compound `CCN(CC)CCCNc1ccc2nc(C)n3c4ccc(OC)cc4c(=O)c1c23` [C-1379], the Fold sensitization stood at 20 in the series with A549/K1.5 cells [2] (control vs illumination) and 32 in the series on A549 cells [6] (control vs illumination). Besides, the “LD50 Control” value came to 15.192 ± 0.58 µM in the series on A549/K1.5 cells [2] (no illumination) and 6.349 ± 0.867 µM in the series with A549 cells [6] (no illumination, 2 h drug, XTT 24 h later). Moreover, the figures for the “Survival at 3000 nM Control” value with A549/K1.5 cells [2] (no illumination) and with A549 cells [6] (no illumination) were 82 ± 4% and 60 ± 1%, respectively. The results for the “LD50 Illumination” value in the series with A549/K1.5 cells [2] (white light 1 hour (5 J/cm^2)) and in the series with A549 cells [6] (white light 1 hour (5 J/cm^2)) were 747 ± 45 nM and 199 ± 31 nM, respectively. For the same compound, the “Survival at 3000 nM Illumination” value amounted to 7 ± 0.1% in the series on A549/K1.5 cells [2] (white light illumination) and 2 ± 0.3% in the series on A549 cells [6] (white light illumination). Besides, the Peak absorption in series [3] was determined as 443 nm. The Peak emission in series [3] was determined as 554 nm. Also, the Peak excitation in series [3] stood at 447 nm. Besides, the “vascular effect in illuminated area” value is “massive occlusion of the capillary network” in series [4] (1 μg/embryo i.v., 20 J/cm^2, 24 hours after illumination) and “vaso-occlusion within the illuminated area” in series [4] (100 μg/embryo i.v., 20 J/cm^2, 1 minute after injection, 24 hours after treatment). Also, the “effect on tumor growth” value in series [5] is reported as “inhibition of tumor growth”. Further, the “effect on tumor vasculature” value in series [5] was “vaso-occlusion and destruction of tumor vasculature”.

Take `Cl.N` [ammonium chloride]: the “effect on lysosomal accumulation of C-1330” value in the series on A549 cells [7] and with A549/K1.5 cells [1] (A549/K1.5) was “completely abolished” throughout.

On to `CO/C1=C\C(C)=C\[C@@H](C)[C@@H](O)[C@@H](C)C/C(C)=C/C=C/[C@H](OC)[C@@H]([C@@H](C)[C@@H](O)[C@H](C)[C@@]2(O)C[C@@H](O)[C@H](C)[C@@H](C(C)C)O2)OC1=O` [bafilomycin A1], for which the “effect on lysosomal accumulation of C-1330” value in the series with A549 cells [7] and with A549/K1.5 cells [1] (A549/K1.5) was “completely abolished” in each case.

For the compound `CCN(CC)CCCC(C)Nc1ccnc2cc(Cl)ccc12` (stereo not shown) [chloroquine], the “increase in lysosomal fluorescence compared to untreated cells” value with A549 cells [8] (24 hours) is 8.4 fold; in the series on A549 cells [8] (48 hours), 21.7 fold. In the series on A549 cells [8] (20, 50 or 100 μM, 24 hours), the “increase in the lysosomes, dose relation” value is reported as “dose-dependent”.

`COc1cccc2c1C(=O)c1c(O)c3c(c(O)c1C2=O)C[C@@](O)(C(=O)CO)C[C@@H]3O[C@H]1C[C@H](N)[C@H](O)[C@H](C)O1` [doxorubicin]: the “lysosomal photodestruction upon illumination” value in the series on A549/K1.5 cells [1] (A549/K1.5, 10 μM, 470 nm, 20 seconds of illumination) is “nearly all of the lysosomes had ruptured”.

For the compound `CCN(CC)CCNC(=O)c1c(C)[nH]c(/C=C2\C(=O)Nc3ccc(F)cc32)c1C` [sunitinib, reference compound], the “location of drug fluorescence in CAM” value in series [4] (administered intravenously) is given as “visible within the vasculature”; in series [4] (administered topically), “visible exclusively outside the vasculature”.
